According to patent US9453198B2, “Method of nociceptor differentiation of human embryonic stem cells and uses thereof” (MEMORIAL SLOAN KETTERING CANCER CENTER, priority 2010, dated 2016):

Key:
rodent GSK3β homologs = conditions: cited from earlier work
hPSCs = test: Intracellular FACS for Nestin and TUJ1 (efficiency of neuronal differentiation); type: cell-based, human; conditions: day 10, further inhibitors added day 2 of LSB treatment
Description: In the presence of LSB, SU/DAPT, DAPT, SU and CHIR, the majority of cells expressed Nestin. In particular, >95% of the LSB cell population were Nestin+.
Neural induction was performed as previously reported (Chambers, et al., Nat Biotechnol 27, (2009), herein incorporated by reference). Briefly, cells were collected then rendered to a single cell suspension using ACCUTASE (Sigma-Aldrich Corp. St. Louis, Mo., USA) and plated on gelatin for 30 minutes to remove Mouse Embryonic Fibroblast (MEF) Feeder Cells (MEFs) (MEFs adhere to gelatin coated plate). Non-adherent cells were collected and plated on matrigel treated dishes at a density of 20-40,000 cells/cm^2 in the presence of MEF-conditioned hESC media containing 10 ng/ml FGF-2 and 10 μM Y-27632 (rho-kinase inhibitor—Tocris Bioscience). Neural differentiation was initiated when the cells were confluent using Knockout Serum Replacement (KSR) media containing 820 ml of Knockout DMEM, 150 ml Knockout Serum Replacement, 1 mM L-glutamine, 100 μM MEM non-essential amino acids, and 0.1 mM β-mercaptoethanol. To inhibit SMAD signaling, 100 nM LDN-193189 and 10 μM SB431542 were added daily from day 0 (when SMAD signaling inhibitors LSB were added) through day 5. Cells were fed daily (i.e. 6 feedings with inhibitors, D0, D1, D2, D3, D4 and D5), and N2 media was added to the initial medium in increasing 25% increments every other day starting on day 4 (up to 100% N2 on day 10). […] After day 10, long-term culture media consisted of N2 media containing 10-100 ng/ml human-β-nerve growth factor (NGF), 10-100 ng/ml brain-derived neurotrophic factor (BDNF), and 10-100 ng/ml glial cell-derived neurotrophic factor (GDNF).
Cells were fixed with 4% paraformaldehyde for 20 minutes, washed with phosphate buffered saline (PBS), permeablized using 0.5% Triton X in PBS, and blocked using 1% BSA (bovine serum albumin) in phosphate buffered saline (PBS). For glutamate staining, 0.05% gluteraldehyde was added to the fixative. […]

[1] = tested on: transgenic SOX10::GFP BAC hESC line; test: SOX10::GFP reporter FACS (neural crest induction); type: cell-based, human; conditions: by day 12 of differentiation
Text: Thus, in order to determine if a neural crest intermediate cell fate marked by SOX10 (Aoki, et al., Dev Biol 259, 19-33, (2003); Lee, et al., Nat Biotechnol 25, 1468-1475, (2007), herein incorporated by reference) in human cells would be observed during differentiation using a transgenic SOX10::GFP bacterial artificial chromosome (BAC) hPSC line. This SOX10:: GFP (BAC) cell line was generated with enriched neural crest gene markers that co-expressed with a GFP gene using methods previously reported (Placantonakis, et al., Stem Cells 27:521-532, (2009), herein incorporated by reference). The SOX10:GFP cell line was a sub-clone of the H9 hESC line. Cells were dissociated and gene delivery was performed using reagents (solution V), protocol (B-16), and equipment from Amaxa. The DNA nucleofected (transfected into the nucleus) was a bacterial artificial chromosome (BAC) containing the SOX10 gene with an inserted GFP, obtained from Gene Expression Nervous System Atlas [GENSAT] (accession number: GENSAT1-BX1086). […]

human ES cells = test: Combinatorial small molecule screen, TUJ1/PAX6 immunofluorescence on day 10; type: cell-based; conditions: no matter when added during LSB treatment
Text: Specifically, in the context of dual SMAD inhibition (LSB), i.e. human ES cells were first treated with LSB (LDN-193189 and SB431542) for screening candidate compounds (i.e. small molecules) under approximately 400 conditions in order to find combinations of small molecules that might accelerate the acquisition of postmitotic neuron markers starting from human ES cells. Candidate compounds were chosen from molecules that targeted (altered) cell signaling pathways known to be important and frequently used in developmental studies in order to determine cell fates (for example, signaling pathways such as FGF, Notch, WNT, SHH (Sonic Hedgehog), etc.) for determining cells capable of CNS development. […]
On day 10 after addition of LSB, cells that survived during the screen were monitored for the loss of the human neuroectoderm marker PAX6 (Zhang, et al., Cell Stem Cell 7, 90-100, (2010), herein incorporated by reference) and initiation of neuronal differentiation by TUJ1 expression (Lee, et al., Cell Motil Cytoskeleton 17, 118-132, (1990), herein incorporated by reference). […] In general, results were determined by observing comparative amounts of TUJ1+/PAX6− staining of cells generated by each treatment such that the conditions and compounds showing the highest amounts of TUJ1+/PAX6− staining were chosen as successful for providing cells for further analysis. […]

hESC = test: Timing of 3i addition after LSB induction (survival, TUJ1); type: cell-based
Text: Cells were stained for identifying antibodies that bound to OCT4 (dark) and PAX6 (light) in addition to a nuclear 4′-6 Diamidino-2-phenylindole (DAPI) stain.
The stem cells treated with the combination of LSB and 3i were fixed on day 11 and examined for survival and expression of the neuronal marker TUJ1.

[2] = tested on: melanocyte precursors from hESC; test: Expansion and maturation of melanocytes; type: cell-based, human; conditions: component left out of formulation
Text: Melanocyte characteristics evaluated included induction of spindle morphology, pigmentation, and melanosome formation.
Specifically, the following time line of culturing conditions was developed that produced melanocytes of the present inventions: Feed on Day 0 and 1 with LDN and SB (using the same concentration ranges as LDN and SB in methods comprising 3i); Feed on Day 2 with LDN, SB, CHIR (using the same concentration ranges as LDN, SB, and CHIR in methods comprising 3i as described herein); In one embodiment, Feed on Day 3 with SB, CHIR (using the same concentration ranges as SB and CHIR in methods comprising 3i as described herein), in another embodiment Feed on Day 3 with LDN, SB, CHIR (using the same concentration ranges as LDN, SB, and CHIR in methods comprising 3i as described herein); Feed on Day 4 and 5 CHIR (using the same concentration ranges as CHIR in methods comprising 3i as described herein); Feed on Day 6 to 11 CHIR, BMP4, and EDN3 (using the same concentration ranges as CHIR in methods comprising 3i as described herein, see concentration ranges below for BMP4 and EDN3). On day 11 cells were passaged and fed with MEL media (including CHIR) up to 8 weeks. […]

Structure (SMILES): Cc1c[nH]c(-c2cnc(NCCNc3ccc(C#N)cn3)nc2-c2ccc(Cl)cc2Cl)n1 [CHIR99021, 6-(2-(4-(2,4-dichlorophenyl)-5-(4-methyl-1H-imidazol-2-yl)pyrimidin-2-ylamino)ethylamino)nicotinonitrile]
- IC50 values (rodent GSK3β homologs): nanomolar
- Nestin positive cells (progenitors) (hPSCs): majority
- SOX10::GFP+ cells [1]: greater than 70%

Structure (SMILES): CC1=C2C[C@H]3[C@@H](CC=C4C[C@@H](O)CC[C@@]43C)[C@@H]2CC[C@]12O[C@@H]1C[C@H](C)CN[C@H]1[C@H]2C [Cyclopamine]
- effect on TUJ1/PAX6 staining (human ES cells): no effect

Structure (SMILES): C[C@H](NC(=O)Cc1cc(F)cc(F)c1)C(=O)N[C@H](C(=O)OC(C)(C)C)c1ccccc1 [DAPT, N—[N-(3,5-Difluorophenacetyl)-L-alanyl]-S-phenylglycine t-butyl ester]
- Nestin positive cells (progenitors) (hPSCs): majority

Structure (SMILES): c1ccc2c(-c3cnn4cc(-c5ccc(N6CCNCC6)cc5)cnc34)ccnc2c1 [LDN193189, 4-(6-(4-(piperazin-1-yl)phenyl)pyrazolo[1,5-a]pyrimidin-3-yl)quinoline]
- effect of inclusion or exclusion from days 5 to 10 on the differentiation (hESC): does not make a difference

Structure (SMILES): CCCCC/C=C\C/C=C\CCCCCCCC(=O)O [Linoleic Acid]
- requirement in medium for growth of melanocytes [2]: required

Structure (SMILES): Cc1c[nH]c(/C=C2\C(=O)Nc3ccccc32)c1CCC(=O)O [SU5402, 2-[(1,2-Dihydro-2-oxo-3H-indol-3-ylidene)methyl]-4-methyl-1H-pyrrole-3-propanoic acid]
- Nestin positive cells (progenitors) (hPSCs): majority
